{"source": "patent US20080287543A1", "about": "“Pharmaceutical composition comprising 5-methyl-2 (2'-chloro-6'-fluoroanillino) phen ylacetic acid” (priority 2003, published 2008)", "format_in_all_cases": "physicochemical", "key": {"Solubility in water": {"test": "Solubility in water", "description": "(§1) Thus, the ability to produce a shelf-stable parenteral formulation is unexpected."}, "[1]": {"test": "Stability in 100% propylene glycol (PG) solution", "details": "50° C., in the dark, after 4 weeks", "description": "as §1"}, "[2]": {"test": "Stability in 100% polyethylene glycol (PEG) 400 solution", "details": "100% PEG 400, 50° C., in the dark, after 4 weeks", "description": "as §1"}}}
{"smiles": "Cc1ccc(Nc2c(F)cccc2Cl)c(CC(=O)O)c1", "note": "[5-methyl-2-(2′-chloro-6′-fluoroanilino)phenylacetic acid]", "values": [{"measurement": "solubility in water", "setting": "Solubility in water", "result": "relatively insoluble"}]}
{"smiles": "Cc1ccc(Nc2c(F)cccc2Cl)c(CC(=O)[O-])c1.[K+]", "note": "[Potassium salt of 5-methyl-2-(2′-chloro-6′-fluoroanilino)phenylacetic acid]", "values": [{"measurement": "degradation in a solution of 100% PG", "setting": "[1]", "result": 7, "unit": "%"}, {"measurement": "degradation in a solution of 100% PEG 400", "setting": "[2]", "result": 5, "unit": "%"}]}
